Experimental data reported in ChEMBL document CHEMBL1201862, “PubChem BioAssay data set” (2004).
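The compound was tested at five concentrations on cells cultured in 96-well plates, with a 48-hour exposure period. GI50 is the concentration that inhibits growth by half.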 Active and inactive are the calls of the source. No stated cut-off is given here; in the data, active = GI50 up to about 1.1 µM and inactive = higher.

Legend:
Assay in all cases: NCI tumour cell line growth inhibition, 48 h
ACHN = test system: ACHN
MDA-MB-231 = test system: MDA-MB-231
UO-31 = test system: UO-31
UACC-257 = test system: UACC-257
MDA-N = test system: MDA-N
EKVX = test system: EKVX
HOP-62 = test system: HOP-62
HCT-15 = test system: HCT-15
SN12C = test system: SN12C
LOX IMVI = test system: LOX IMVI
786-0 = test system: 786-0
HT-29 = test system: HT-29
OVCAR-4 = test system: OVCAR-4
SNB-75 = test system: SNB-75
NCI-H522 = test system: NCI-H522
MDA-MB-435 = test system: MDA-MB-435
TK-10 = test system: TK-10
U-251 = test system: U-251
SW-620 = test system: SW-620
NCI-H460 = test system: NCI-H460

Structure (SMILES)	GI50 (ACHN)	GI50 (MDA-MB-231)	GI50 (UO-31)	GI50 (UACC-257)	GI50 (MDA-N)	GI50 (EKVX)	GI50 (HOP-62)	GI50 (HCT-15) [µM]	GI50 (SN12C)	GI50 (LOX IMVI)	GI50 (786-0)	GI50 (HT-29)	GI50 (OVCAR-4)	GI50 (SNB-75)	GI50 (NCI-H522)	GI50 (MDA-MB-435)	GI50 (TK-10)	GI50 (U-251)	GI50 (SW-620)	GI50 (NCI-H460)
NCCNS(=O)(=O)c1ccc(N)cc1	> 100 µM (inactive)	> 100 µM (inactive)	> 100 µM (inactive)	> 100 µM (inactive)	> 100 µM (inactive)	> 100 µM (inactive)	> 100 µM (inactive)	> 100	> 100 µM (inactive)	> 100 µM (inactive)	> 100 µM (inactive)	> 100 µM (inactive)	> 100 µM (inactive)	> 100 µM (inactive)	> 100 µM (inactive)	> 100 µM (inactive)	> 100 µM (inactive)	> 100 µM (inactive)	> 100 µM (inactive)	
CC(=O)OCC1OC(n2c(-c3ccc(C)cc3)cc(-c3ccccc3)c(C#N)c2=S)C(OC(C)=O)C(OC(C)=O)C1OC(C)=O (stereo not given)	> 100 µM (inactive)	> 100 µM (inactive)	> 100 µM (inactive)		> 100 µM (inactive)	> 100 µM (inactive)	> 100 µM (inactive)	> 100	> 100 µM (inactive)	> 100 µM (inactive)	> 100 µM (inactive)	> 100 µM (inactive)	81.1 µM (inactive)	32.7 µM (inactive)	> 100 µM (inactive)	> 100 µM (inactive)	> 100 µM (inactive)	> 100 µM (inactive)	> 100 µM (inactive)	> 100 µM (inactive)
O=[N+]([O-])/C(C(Cl)=C(Cl)Cl)=C(/Sc1ccccc1)N1CCOCC1	4.82 µM (inactive)	5.12 µM (inactive)	4.67 µM (inactive)	9.91 µM (inactive)	3.65 µM (inactive)	9.75 µM (inactive)	17.5 µM (inactive)	3.45	4.76 µM (inactive)	1.53 µM (inactive)	2.28 µM (inactive)	6.15 µM (inactive)	11.6 µM (inactive)		4.31 µM (inactive)	2.59 µM (inactive)	6.68 µM (inactive)	10.5 µM (inactive)	2.26 µM (inactive)	5.05 µM (inactive)
CC(C)(C)c1cc2c(O)c(c1)C(c1ccccc1)c1cc(C(C)(C)C)cc(c1O)Cc1cc(C(C)(C)C)cc(c1O)C(c1ccccc1)c1cc(C(C)(C)C)cc(c1O)C2 (stereo not given)	> 100 µM (inactive)	> 100 µM (inactive)	> 100 µM (inactive)	> 100 µM (inactive)	> 100 µM (inactive)	> 100 µM (inactive)	> 100 µM (inactive)	> 100	> 100 µM (inactive)	> 100 µM (inactive)	> 100 µM (inactive)	> 100 µM (inactive)	> 100 µM (inactive)		> 100 µM (inactive)	> 100 µM (inactive)	> 100 µM (inactive)	> 100 µM (inactive)	> 100 µM (inactive)	> 100 µM (inactive)
OC(CC(CC(O)(C(F)(F)Cl)C(F)(F)Cl)=NNc1ccccc1)(C(F)(F)Cl)C(F)(F)Cl	2.79 µM (inactive)	2.78 µM (inactive)		1.88 µM (inactive)	2.87 µM (inactive)	3.27 µM (inactive)	3.43 µM (inactive)	3.23	3.36 µM (inactive)	2.94 µM (inactive)	4.54 µM (inactive)	3.06 µM (inactive)	3.33 µM (inactive)	2.71 µM (inactive)	4.4 µM (inactive)	3.57 µM (inactive)	3.88 µM (inactive)	3.3 µM (inactive)	3.27 µM (inactive)	3.04 µM (inactive)
CO/C(N)=C(C#N)/N=C/c1ccc2ccccc2c1	15.9 µM (inactive)	19.5 µM (inactive)	58.2 µM (inactive)	7.52 µM (inactive)	8.41 µM (inactive)	64.3 µM (inactive)	23.2 µM (inactive)		> 100 µM (inactive)	33.2 µM (inactive)	78.5 µM (inactive)	18.5 µM (inactive)		78.9 µM (inactive)	> 100 µM (inactive)	7.1 µM (inactive)	> 100 µM (inactive)	30.8 µM (inactive)	> 100 µM (inactive)	
COc1ccc(N[S+]([O-])c2ccc(Cl)cc2)cc1 (stereo not given)	91 µM (inactive)	50.4 µM (inactive)	14.6 µM (inactive)	17.9 µM (inactive)	28.3 µM (inactive)	55.2 µM (inactive)	61.7 µM (inactive)	19.5	> 100 µM (inactive)	31 µM (inactive)	49.8 µM (inactive)	37.7 µM (inactive)	> 100 µM (inactive)		16.2 µM (inactive)	14.8 µM (inactive)	> 100 µM (inactive)	11.8 µM (inactive)	49.1 µM (inactive)	24.3 µM (inactive)
Cc1c(/N=N/c2ccccc2)c(-c2ccccc2)n(C2OC(CO)C(O)C(O)C2O)c(=S)c1C#N (stereo not given)	3.95 µM (inactive)	10 µM (inactive)	7.74 µM (inactive)		4.71 µM (inactive)	13.8 µM (inactive)	7.14 µM (inactive)	5.01	6.22 µM (inactive)	2.62 µM (inactive)	5.14 µM (inactive)	6.59 µM (inactive)	6.1 µM (inactive)	2.72 µM (inactive)	3.5 µM (inactive)	4.98 µM (inactive)	9.29 µM (inactive)	4.08 µM (inactive)	4.97 µM (inactive)	10.6 µM (inactive)
CC(C)(C)OC(=O)N1[C@@H]2Cc3ccc(N)cc3[C@@]1(C)c1ccccc12	36.8 µM (inactive)	27.7 µM (inactive)	40.6 µM (inactive)	27.2 µM (inactive)	21.2 µM (inactive)	38.3 µM (inactive)	35 µM (inactive)	11.1	16.8 µM (inactive)	19.6 µM (inactive)	19.1 µM (inactive)	21.6 µM (inactive)	29.8 µM (inactive)		12.2 µM (inactive)	16.8 µM (inactive)	35.5 µM (inactive)	17 µM (inactive)	29.7 µM (inactive)	21.2 µM (inactive)
O=c1/c(=C/c2ccc([N+](=O)[O-])o2)sc2n1[C@@H](c1ccc(Cl)cc1)C=C(c1cc(F)c(Cl)cc1Cl)N=2	16.3 µM (inactive)	5.07 µM (inactive)	14.7 µM (inactive)	15.4 µM (inactive)	4.65 µM (inactive)		11.5 µM (inactive)	8.18	5.5 µM (inactive)	16 µM (inactive)	4.71 µM (inactive)	6.62 µM (inactive)	16.6 µM (inactive)	29.2 µM (inactive)	18.3 µM (inactive)	16.1 µM (inactive)	16.1 µM (inactive)	8.02 µM (inactive)	4.91 µM (inactive)	10 µM (inactive)
Brc1c(C#CCC2CCCCC2)ccc(C#CCC2CCCCC2)c1Br	> 100 µM (inactive)	> 100 µM (inactive)		> 100 µM (inactive)	> 100 µM (inactive)	> 100 µM (inactive)		> 100	> 100 µM (inactive)	> 100 µM (inactive)	> 100 µM (inactive)		> 100 µM (inactive)	> 100 µM (inactive)	> 100 µM (inactive)	> 100 µM (inactive)	> 100 µM (inactive)	> 100 µM (inactive)	> 100 µM (inactive)	> 100 µM (inactive)
COc1ccc(N[S+]([O-])CCCc2ccccc2)cc1 (stereo not given)	> 100 µM (inactive)	> 100 µM (inactive)	38.7 µM (inactive)	65 µM (inactive)	> 100 µM (inactive)	> 100 µM (inactive)	> 100 µM (inactive)	64	> 100 µM (inactive)	> 100 µM (inactive)	> 100 µM (inactive)	> 100 µM (inactive)	> 100 µM (inactive)		24.1 µM (inactive)	> 100 µM (inactive)	> 100 µM (inactive)	72.3 µM (inactive)	> 100 µM (inactive)	> 100 µM (inactive)
Cc1ccc(S(=O)(=O)NNCNC(=O)c2ccccc2)cc1	> 100 µM (inactive)	> 100 µM (inactive)	82.8 µM (inactive)	> 100 µM (inactive)	33.9 µM (inactive)	> 100 µM (inactive)	> 100 µM (inactive)	70.8	> 100 µM (inactive)	68.7 µM (inactive)	> 100 µM (inactive)	61.2 µM (inactive)	> 100 µM (inactive)	> 100 µM (inactive)	> 100 µM (inactive)	32.4 µM (inactive)	> 100 µM (inactive)	> 100 µM (inactive)	94.8 µM (inactive)	
COC1=C(OC)C(=O)C(Cc2c(C)nc3sccn23)=C(C)C1=O	14.9 µM (inactive)	13.1 µM (inactive)	13.6 µM (inactive)	5.65 µM (inactive)	12.7 µM (inactive)	14.1 µM (inactive)	17.5 µM (inactive)	16.5	15.8 µM (inactive)	11.7 µM (inactive)	19.1 µM (inactive)	16.4 µM (inactive)	2.92 µM (inactive)		6.64 µM (inactive)	13.6 µM (inactive)	16.4 µM (inactive)	15.6 µM (inactive)	14.8 µM (inactive)	20 µM (inactive)
O=C(CCc1ccc(O)cc1)NCCCNC(=O)CCc1ccc(O)cc1	> 100 µM (inactive)	> 100 µM (inactive)	> 100 µM (inactive)	> 100 µM (inactive)	> 100 µM (inactive)		> 100 µM (inactive)	> 100	> 100 µM (inactive)	> 100 µM (inactive)	> 100 µM (inactive)	> 100 µM (inactive)	> 100 µM (inactive)	24.7 µM (inactive)	> 100 µM (inactive)	> 100 µM (inactive)		> 100 µM (inactive)	> 100 µM (inactive)	> 100 µM (inactive)
